Laboratory results taken from patent publication EP2717965B1, “USE OF EPSILON-POLY-L-LYSINE FOR INCREASING THE BIOAVAILABILITY OF ANTIMICROBIAL PEPTIDES IN THE HUMAN SKIN” (Beiersdorf AG, priority 2011, dated 2017).
Where two headings read alike, the source gives them in different places.

What was measured:
[1] = system: hBD3; settings: 50 µl of 1% solution in Citratpuffer pH 6 on inner forearm, 4h, rinse with 0,5 ml buffer; control Citratpuffer
Description: 50 µl einer 1%igen wässrigen gepufferten Lösung (Citratpuffer pH 6)von ePL wurden auf die Innenseite des Unterarms von Probanden gegeben. Als Kontrolle diente die Applikation von Citratpuffer ohne ePL. Nach 4h Inkubation wurden die Hautareale mit 0,5 ml Pufferlösung gespült und die Konzentration hBD3 im Eluat mit Hilfe eines ELISAs quantifiziert.
Als Kontrolle diente Citratpuffer, in dem die Wirkstoffe gelöst wurden. (n=8)

[2] = system: hBD3; assay: hBD3 in forearm skin rinses of volunteers after topical application, ELISA of eluate; format: in vivo, Probanden; settings: 50 µl of 1% solution in Citratpuffer pH 6 on inner forearm, 4h, rinse with 0,5 ml buffer; control Citratpuffer
Source text: Abb. […] Als Kontrolle wurde Citratpuffer appliziert. (n=7)

[3] = system: hBD3; assay: hBD3 secretion of cultured human epidermal keratinocytes, ELISA of cell culture supernatant; format: cell-based, humane epidermale Keratinozyten; settings: 24 Stunden incubation
Source text: In vitro kultivierte humane epidermale Keratinozyten wurden in Zellkultur Medium mit ε-Poly-L-Lysin in einem Konzentrationsbereich von 0,001-0,1% für 24 Stunden inkubiert. Anschließend wurde die Konzentration an hBD3 im Zellkulturüberstand mittels ELISA quantifiziert.
Abb. 1: Dosisabhängige hBD3 Expression von humanen epidermalen Keratinozyten, die über einen Zeitraum von 24 Stunden mit ePL kultiviert wurden.
Abbildung 1 zeigt die dosisabhängige hBD3 Freisetzung von mit ePL inkubierten Keratinozyten. Kontrollzellen zeigten nur eine geringfüge basale hBD3 Menge.

NCCCC[C@H](N)C(=O)O [Lysin, L-Lysin]
hBD3-Steigerung [1]: nicht aber bei der freien Aminosäure eine hBD3-Steigerung

NCC(=O)O [Glycin]
hBD3-Steigerung [1]: nur beim peptidisch verknüpften Lysin

Poly[imino[(2S)-2-amino-1-oxo-1,6-hexandiyl]] [ePL]
hBD3-Steigerung [2]: gleichermaßen wirksam
hBD3 Sekretion ([3]; 0,01% und 0,1% in cell culture medium, compared with 0,001%): steigerte nochmals die hBD3 Sekretion deutlich
hBD3 Sekretion der Keratinozyten ([3]; 0,001% in cell culture medium, versus control cells): signifikante Erhöhung (p<0,001)

alpha-Polylysin
hBD3-Steigerung [2]: gleichermaßen wirksam
